Results on one compound are retold here after patent publication US20230393170A1, “IN SITU MECHANICAL CHARACTERIZATION OF A SAMPLE STRAIN” (BOARD OF REGENTS OF THE UNIVERSITY OF NEBRASKA, priority 2020, published 2023).

The test system of this assay is A431 cell pair cell-cell junction. Briefly: Displacement-controlled stretch test of a single cell pair treated with contractility modulators. The assay is classed as cell-based. The text has this: To apply strain to the cell-cell junction, the test platform was placed with deposited cells under the AFM integrated with an inverted microscope. An AFM probe with a through-hole drilled at the front end using a focused ion beam (FIB) is positioned above the micropillar on Island 2 and then lowered to capture it within the through-hole. With this, displacement was applied and displacement rates were tried to investigate the mechanical behavior of the cell-cell junction with obtained stress-strain curves (as discussed below with reference to FIG. 12).
The cell pair was treated with cellular contractility modulators, RhoA Activator I. CN01, and myosin II inhibitor: blebbistatin (Bleb), to examine the impact of actomyosin activity on the mechanical behavior of the cell pair under mechanical stress. Stress-strain curves collected at 0.5% s^−1 strain rate show a clear contrast between samples treated with CN01, Bleb, and DMSO control. […] The stress-strain curves were then analyzed using the constitutive model. […] The increase (decrease) in both η and E2 by CN01 (Bleb) is consistent with the enhanced (reduced) stress fiber formation.
Zyxin staining was performed to visualize the focal adhesion points between cells and the structure. After fixing the cells (see above), the anti-zyxin antibody (Sigma) with a ratio of 1:250 with PBS was added to the sample and refrigerated for 24 hours. The solution was then removed, and the sample was washed with PBS. PBS was replaced by Goat anti-Rabbit IgG (H+L), Superclonal™ Recombinant Secondary Antibody, Alexa Fluor 647 (Thermofisher) and incubated for 1 hour at 37° C. Finally, the sample was washed with PBS and the actin and nuclei staining protocol were performed. Pharmacological treatments modulating cell contractility included 3 μM blebbistatin (Bleb) (Sigma-Aldrich) for 2 h and 1 unit/ml Rho Activator I (CN01; Cytoskeleton, Inc., Denver, CO) for 30 min.
A modified version of MATLAB digital image correlation (DIC) was used to analyze the frames from the stretch test. The first frame was considered as the reference and the rest of the frames were compared to the reference frame to calculate the displacement of each island. A region of interest with markers within the region was defined for both islands. Then, the MATLAB code calculated the markers' new coordinates with respect to the first frame, from which the displacement of the islands was calculated. The force is defined by the Island 1 displacement multiplied by its stiffness, and the stress is acquired by dividing the force by the junction cross-section (approximately 120 μm^2). The strain is then calculated as the difference between the islands' displacements divided by the cell-cell junction's initial length (approximately 20 μm).
Each stretch test was recorded with a screen recorder software (Camtasia) and the movie was divided into frames that were analyzed with a customized DIC-based program to calculate each island's movement. In this method, a region of interest is defined and, within this region, a few markers are placed. The higher the number of markers, the better the resolution of the calculated displacement is. Then, when the coordinates of these markers change, a corresponding red marker appears (FIGS. 12A and 12B). In the first frame, both initial and displaced positions of markers are completely overlapped so just red markers are shown. […] The strain is calculated by dividing the difference of both islands' displacements by the initial length […]. […]

[1] abbreviates: 0.5% s^-1 strain rate, fit of stress-strain curves.

Structures are written as SMILES. “Also recorded” adds a separate entry of the source.

In the case of `Cc1ccc2c(c1)C(=O)C1(O)CCN(c3ccccc3)C1=N2` (centres unmarked) [Bleb, blebbistatin], under “0.5% s^-1 (100 nm/s) strain rate”, the “rupture of the cell-cell adhesion junction” value is “ruptured at the initial stages”. Also, the “overall stress level compared with controls” value (0.5% s^-1 strain rate (100 nm/s), CN01 1 unit/ml 30 min, Bleb 3 μM 2 h, vs DMSO control) is on record as “reduces the stress accumulation; also recorded: stress level was low compared to other conditions”. Besides, under setting [1], the “Membrane stiffness, E1 (MSLS model fit)” value is recorded as “stays the same for all conditions”; the “elastic moduli of the intracellular components, E2 (MSLS model fit)” value is “reduces them”; the “viscosity, η (MSLS model fit)” value is listed as “reduces them”.
